Data published in patent publication US11779014B2, “Adjuvants” (SYNGENTA PARTICIPATIONS AG, priority 2017, dated 2023).

Assays:
[1] = De-gelling temperature of aqueous surfactant blends by low shear rheology (Bohlin Gemini rheometer, storage modulus vs temperature); type: physicochemical
Protocol: The temperatures at which blends of capped and uncapped surfactants de-gel were determined by standard low shear rheology with a Bohlin™ Gemini rheometer. The storage modulus (G′) at 1 Hz was determined at a strain of 0.001-0.002 in a standard C14 cup and bob geometry over a temperature range of 5-70° C., the exact range depending on the de-gelling point of the sample. Plots of storage modulus versus temperature were constructed and the de-gelling temperature was taken to be the point at which the modulus begins to fall rapidly from its high value in the gelled state (typically ca. 10^5 Pa) down to the final value in the de-gelled state (less than 10 Pa). Blends of surfactants were prepared at from 25 to 40% w/w total surfactant concentration in water. Samples were left in an oven at 55° C. for several days to ensure that the mixtures were homogeneous. Samples were placed in the C14 cup and the samples were de-gelled by raising the temperature in the rheometer, the bob was then inserted and the sample was then cooled at 1° C./min, whilst the storage modulus was regularly recorded during the cooling. Once the final temperature had been reached (i.e. when the sample had gelled), the temperature was then increased again and the modulus again recorded. The de-gelling temperature was determined from the increasing temperature cycle.
Degelling temperatures—the measurements relied on the same method as for ‘Example 1’ but just at 30% w/w total surfactant concentration.
De-gelling temperatures were measured using the same method as in Example 1.
(§1) This example provides de-gelling, cloud point and adjuvancy data for dodecyl 23 ethoxylate with n-hexyl cap and hexadecyl 20 ethoxylate with n-hexyl cap Cloud points were measured as described in example 1 for 1% aqueous solutions of the capped and uncapped surfactants both individually and as blends (see Table 30). Degelling temperatures were also measured as outlined in example 1 for 25, 30, 35 and 40% aqueous solutions of the capped and uncapped surfactants both individually and as blends (see Table 31).
(§2) This example provides de-gelling, cloud point and adjuvancy data for oleyl 20 ethoxylate with n-butyl, n-pentyl or benzyl ether caps end capped oleyl 20 ethoxylate. Cloud points were measured as described in example 1 for 1% aqueous solutions of the capped and uncapped surfactants both individually and as blends. Degelling temperatures were also measured as outlined in example 1 for 25, 30, 35 and 40% aqueous solutions o of the capped and uncapped surfactants both individually and as blends.

[2] = Cloud point measurement (absorbance at 500 nm as a function of temperature); type: physicochemical; settings: 1% aqueous solutions
Protocol: Consistent with the standard method for measuring the cloud point of surfactants, the cloud point of each of the above blends was measured at a total concentration of 1% w/w in water using a Perkin Elmer spectrophotometer fitted with a PTP6 temperature controller. The absorbance of the solution at 500 nm wavelength was determined as a function of temperature. The cloud point was recorded as the onset of a rapid increase in absorbance as the solution began to cloud.
Cloud point—the measurements relied on the same method as for ‘Example 1’
Cloud points—were measured using the same method as in Example 1.
as §1, §2

Avena fatua (AVEFA) = assay: Glasshouse adjuvancy test for pinoxaden on AVEFA; type: in vivo; settings: pinoxaden 15 g ai/ha, total surfactant 0.2% w/v, 21 days
Protocol: The efficacy of 1:1 blends of oleyl 20EO with oleyl 20EO with either n-hexanoyl, n-octanoyl or 2-ethyl hexanoyl ester caps as adjuvants for the herbicide pinoxaden was tested in a glasshouse against two weed species, sown into standard soil in pots and cultivated under controlled conditions in a glasshouse (20/16° C. day/night; 16 hours light; 65% humidity). Pinoxaden was added to the spray tank as a standard EC (emulsifiable concentrate) formulation. The plants were sprayed with pinoxaden at rates of 7.5 or 15 grams of pesticide per hectare using a laboratory track sprayer which delivered the aqueous spray composition at a rate of 200 litres per hectare, using a flat fan nozzle (Teejet 11002VS) at 2 bar. The spray solutions also contained the oleyl 20EO alone or in the 1:1 blends with the capped surfactants. The adjuvants were added to the spray solution at a total surfactant rate of 0.2% w/v. All spray solutions also contained 10% w/w of iso-propanol. The weed species and their BBCH growth stage at spraying were Avena fatua (AVEFA; growth stage 13) and Setaria viridis (SETVI; growth stage 13). Each spray test was replicated three times. The test plants were then grown in a glasshouse under controlled conditions (20/16° C. day/night; 16 hours light; 65% humidity) and watered twice a day. The efficacy of the herbicide was assessed visually and expressed as a percentage of the leaf area killed. Samples were assessed at a time period of 21 days following application.
Dodecyl 23EO and hexadecyl 20EO were capped with an n-hexyl ether cap. The efficacy of 1:1 blends of these with their uncapped counterparts were tested as adjuvants for the herbicide pinoxaden was tested in a glasshouse against two weed species, sown into standard soil in pots and cultivated under controlled conditions in a glasshouse (20/16° C. day/night; 16 hours light; 65% humidity). Pinoxaden was added to the spray tank as a standard EC (emulsifiable concentrate) formulation. The plants were sprayed with pinoxaden at a.i. rates of 7.5 or 15 grams per hectare using a laboratory track sprayer which delivered the aqueous spray composition at a rate of 200 litres per hectare, using a flat fan nozzle (Teejet 11002VS) at 2 bar. The spray solutions tested included the capped and uncapped alone or in the 1:1 blends with the capped surfactants. The adjuvants were added to the spray solution at a total surfactant rate of 0.2% w/v. All spray solutions also contained 10% w/w of iso-propanol. The weed species and their BBCH growth stage at spraying was Avena fatua (AVEFA; growth stage 12). Each spray test was replicated three times. The test plants were then grown in a glasshouse under controlled conditions (20/16° C. day/night; 16 hours light; 65% humidity) and watered twice a day. The efficacy of the herbicide was assessed visually and expressed as a percentage of the leaf area killed. Samples were assessed at a time period of 21 days following application.
Oleyl 20EO was capped with -butyl, n-pentyl and n-benzyl caps. The efficacy of 1:1 blends of these with their uncapped counterparts were tested as adjuvants for the herbicide pinoxaden was tested in a glasshouse against two weed species, sown into standard soil in pots and cultivated under controlled conditions in a glasshouse (20/16° C. day/night; 16 hours light; 65% humidity). Pinoxaden was added to the spray tank as a standard EC (emulsifiable concentrate) formulation. The plants were sprayed with pinoxaden at a.i. rates of 7.5 or 15 grams per hectare using a laboratory track sprayer which delivered the aqueous spray composition at a rate of 200 litres per hectare, using a flat fan nozzle (Teejet 11002VS) at 2 bar. The spray solutions tested included the capped and uncapped alone or in the 1:1 blends with the capped surfactants. The adjuvants were added to the spray solution at a total surfactant rate of 0.2% w/v. All spray solutions also contained 10% w/w of iso-propanol.

[3] = total surfactant concentration 25% w/w, Table 31
[4] = total surfactant concentration 30% w/w, Table 31
[5] = total surfactant concentration 35% w/w, Table 31
[6] = total surfactant concentration 40% w/w, Table 31

| Compound | De-gelling temperature [1, 3] [°C] | De-gelling temperature [1, 4] [°C] | De-gelling temperature [1, 5] [°C] | De-gelling temperature [1, 6] [°C] | Cloud point ([2]; Table 30) [°C] | Mean control (Avena fatua (AVEFA); Example 7, growth stage 12) [%] | De-gelling temperature ([1]; total surfactant concentration 25% w/w, Table 35) [°C] | De-gelling temperature ([1]; total surfactant concentration 30% w/w, Table 35) [°C] | De-gelling temperature ([1]; total surfactant concentration 35% w/w, Table 35) [°C] | De-gelling temperature ([1]; total surfactant concentration 40% w/w, Table 35) [°C] | Cloud point ([2]; Table 34) [°C] | Mean control (Avena fatua (AVEFA); Example 9, growth stage 12) [%] |
| --- | --- | --- | --- | --- | --- | --- | --- | --- | --- | --- | --- | --- |
| CCCCCCCCCCCCCCCCOCCOCCOCCOCCOCCOCCOCCOCCOCCOCCOCCOCCOCCOCCOCCOCCOCCOCCOCCOCCO [Hexadecyl 20EO, hexadecyl 20 ethoxylate] | 23.2 | 48.7 | 66.1 | 74.1 | >90.0 | 90.3 |  |  |  |  |  |  |
| Oleyl 20EO n-pentyl ether |  |  |  |  |  |  | <5 | 27.3 | 34.0 | 36.1 | 55.9 | 87.7 |
| dodecyl 23 ethoxylate [Dodecyl 23EO] | 21.1 | 38.6 | 55.0 | 64.3 | >90.0 | 83.3 |  |  |  |  |  |  |
| Hexadecyl 20EO n-hexyl ether | <5 | <5 | 5.7 | 19.6 | 55.9 | 93.3 |  |  |  |  |  |  |
| Dodecyl 23EO n-hexyl ether | <5 | <5 | <5 | 7.4 | 67.2 | 86 |  |  |  |  |  |  |
